Test results from publication PMC11004567 (Heliyon, 2024).
Values after ≈ are worked out from the molar mass of the structure shown. Like-named read-outs stand apart in the source and are kept apart here.

Assays:
[1] = tested on: MRSA2, methicillin-resistant S. aureus clinical isolate SA 630; assay: In vitro antibacterial evaluation, broth dilution micro-method MIC; assay type: cell-based; settings: Staphylococcus aureus, MRSA, read-out: MIC MRSA2
[2] = tested on: MRSA3, methicillin-resistant S. aureus clinical isolate 63718; assay: as above; assay type: cell-based; settings: Staphylococcus aureus, read-out: MIC MRSA3
[3] = tested on: VRE 725 B, vancomycin-resistant E. faecalis; assay: In vitro anti-enterococcal MIC, broth dilution micro-method; assay type: cell-based, Enterococcus faecalis; settings: 24 h, read-out: MIC VRE 725 B
[4] = tested on: VRE 368, vancomycin-resistant E. faecalis; assay: as above; assay type: cell-based, Enterococcus faecalis; settings: 24 h, read-out: MIC VRE 368
[5] = tested on: VRE 342B, vancomycin-resistant E. faecalis; assay: as above; assay type: cell-based, Enterococcus faecalis; settings: 24 h, read-out: MIC VRE 342B
[6] = tested on: Staphylococcus aureus ATCC 29213; assay: In vitro antibacterial evaluation, broth dilution micro-method MIC; assay type: cell-based
S. aureus ATCC 29213 [7] = assay: MTT assay, inhibition of respiratory activity; assay type: cell-based, Staphylococcus aureus; settings: at 16 × MIC
[8] = tested on: MRSA1, methicillin-resistant S. aureus clinical isolate SA 3202; assay: In vitro antibacterial evaluation, broth dilution micro-method MIC; assay type: cell-based; settings: Staphylococcus aureus, MRSA, read-out: MIC MRSA1
E. faecalis ATCC 29213 = assay: In vitro anti-enterococcal MIC, broth dilution micro-method; assay type: cell-based; settings: Enterococcus faecalis, ATCC29213, 24 h, read-out: MIC E. faecalis ATCC 29213
[9] = tested on: human monocytic leukemia cell line THP-1; assay: In vitro cell viability analysis; assay type: cell-based; settings: read-out: IC50 THP-1
M. kansasii DSM 44162 = assay: In vitro antimycobacterial evaluation, broth dilution micro-method; assay type: cell-based; settings: Mycobacterium kansasii, DSM44162, read-out: MIC M. kansasii DSM 44162
[10] = Lipophilicity log k by RP-HPLC; assay type: physicochemical; settings: logarithm of capacity factor, experimentally determined by RP-HPLC
[11] = tested on: mature S. aureus ATCC 29213 biofilm; assay: Biofilm disruption / eradication of mature biofilm; assay type: cell-based, Staphylococcus aureus
[12] = tested on: breast cancer MCF-7 cells; settings: through creation of ROS, disruption of mitochondrial membrane potential; cited from earlier work
S. aureus ATCC 29213 [13] = assay: Dynamics of antibacterial effect; assay type: cell-based, Staphylococcus aureus; settings: time-kill curves, 1×, 2× (SB3–Cu also 4×) MIC, up to 24 h
[14] = tested on: non-cancer human renal proximal tubule epithelial TH-1 cells; settings: read-out: IC50 TH-1; cytotoxicity, non-cancer renal TH-1 cells; cited from earlier work
[15] = ATCC29213, 24 h, read-out: MIC SA

Row | SMILES | MIC ([1]; 24 h) [µg/mL] | MIC [1] [µM] | MIC ([2]; 24 h) [µg/mL] | MIC [2] [µM] | MIC [3] [µg/mL] | MIC [4] [µg/mL] | MIC [5] [µg/mL] | MIC [6, 15] [µg/mL] | MIC ([6]; ATCC29213, read-out: MIC SA) [µM] | MIC ([8]; 24 h) [µg/mL] | MIC [8] [µM] | MIC (E. faecalis ATCC 29213) [µg/mL] | log k [10] | IC50 ([9]; Homo sapiens, THP-1, 24 h) [µM] | IC50 [14] [µM] | further results
1 | CC1(C)S[C@@H]2[C@H](NC(=O)[C@H](N)c3ccccc3)C(=O)N2[C@H]1C(=O)O [AMP, ampicillin, reference compound] | > 16 | > 45.8 | 16 | 45.8 | 4 (≈ 11.4 µM) | 4 (≈ 11.4 µM) | 4 (≈ 11.4 µM) | 2 | 5.7 | > 16 | > 45.8 | 1 (≈ 2.86 µM) | – | – | – | S. aureus Respiration Inhibition (S. aureus ATCC 29213 [7]): 81.9%
2 | N.N.[Cl][Pt][Cl] [CPT, cisplatin, reference compound] | – | – | – | – | – | – | – | – | – | – | – | – | – | – | – | IC50 ([9]; cell viability, CCK-8, 24 h, ± SD, n = 6): 16.1 ± 1.3 µM
3 | NNC(=O)c1ccncc1 [INH, isoniazid] | – | – | – | – | – | – | – | – | – | – | – | – | – | – | – | MIC (M. kansasii DSM 44162): 29.1 µM (≈ 3.99 µg/mL)
4 | O=C1c2ccccc2NC(c2cc([N+](=O)[O-])ccc2O)N1/N=C/c1cc([N+](=O)[O-])ccc1O (stereo not shown) [SB3, 3-[(E)-(2-hydroxy-5-nitrobenzylidene)amino]-2-(2-hydroxy-5-nitrophenyl)-2,3-dihydroquinazolin-4(1H)-one] | 16 | 35.6 | 64 | 141 | > 256 | > 256 | > 256 | 32 | 71.2 | 64 | 141 | 256 (≈ 570 µM) | 0.6022 | 12.7 ± 1.2 | 432 | Reduction of biofilm viability ([11]; at 0.5 × MIC): no effect; Eradication activity on mature biofilm ([11]; at 1 × MIC): 81.7 ± 13.7%; Concentration eradicating 80% of S. aureus biofilm ([11]; mature biofilm, 24 h treatment): 1 × MIC; Apoptosis of MCF-7 cells [12]: induces apoptosis; Mode of antibacterial action (bactericidal vs bacteriostatic) (S. aureus ATCC 29213 [13]): only bacteriostatically
5 | COc1cccc(/C=N/N2C(=O)c3ccccc3NC2c2cccc(OC)c2O)c1O (stereo not shown) [SB8, 3-[(E)-(2-hydroxy-3-methoxybenzylidene)amino]-2-(2-hydroxy-3-methoxyphenyl)-2,3-dihydroquinazolin-4(1H)-one] | > 256 | – | > 256 | – | > 256 | > 256 | > 256 | > 256 | – | > 256 | – | > 256 | 0.1689 | > 50 | > 1000 | –
